From ChEMBL document CHEMBL4602687, “Dual Binding to Orthosteric and Allosteric Sites Enhances the Anticancer Activity of a TRAP1-Targeting Drug” (J Med Chem, 2020) come the findings set out here.

Each structure is given as a SMILES string. Residue numbers refer to the chain shown, from its start. Activity calls are given as the source filed them. No cut-off for these calls is given here.

Assay [1] addresses T1, Heat shock protein 75 kDa, mitochondrial (Homo sapiens) (UniProt Q12931).
T1 sequence (whole entry): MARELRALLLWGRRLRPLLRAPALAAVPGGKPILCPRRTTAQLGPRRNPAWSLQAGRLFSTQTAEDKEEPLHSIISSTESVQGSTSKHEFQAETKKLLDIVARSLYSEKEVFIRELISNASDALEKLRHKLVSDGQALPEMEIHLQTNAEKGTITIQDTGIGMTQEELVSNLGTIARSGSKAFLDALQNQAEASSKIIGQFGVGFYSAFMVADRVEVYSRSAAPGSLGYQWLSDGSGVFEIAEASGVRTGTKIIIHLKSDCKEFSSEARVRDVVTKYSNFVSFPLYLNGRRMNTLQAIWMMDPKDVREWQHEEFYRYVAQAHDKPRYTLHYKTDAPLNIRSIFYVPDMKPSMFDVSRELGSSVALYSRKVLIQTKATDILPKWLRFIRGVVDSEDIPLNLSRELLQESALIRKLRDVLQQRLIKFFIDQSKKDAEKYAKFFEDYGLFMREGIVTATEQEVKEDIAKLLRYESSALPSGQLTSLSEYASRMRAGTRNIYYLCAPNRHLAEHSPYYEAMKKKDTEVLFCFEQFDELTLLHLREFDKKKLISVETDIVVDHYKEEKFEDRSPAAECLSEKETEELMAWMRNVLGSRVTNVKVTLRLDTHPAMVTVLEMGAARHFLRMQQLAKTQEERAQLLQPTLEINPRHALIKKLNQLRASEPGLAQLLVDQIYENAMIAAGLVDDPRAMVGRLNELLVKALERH
In words: Inhibition of TRAP1 in human PC3 cells assessed as reduction in SIRT3 expression at 5 uM measured after 2 to 12 hrs by Western blot analysis. The class given is cell-based. The conditions noted are these: PC-3. Background: In western blotting, separated proteins are transferred to a membrane and probed.

For another assay, the species on record is Homo sapiens. In words: Inhibition of recombinant full-length human TRAP1 W383/W4F mutant expressed in Escherichia coli BL21 (DE3) assessed as intrinsic fluorescence quenching of tryptophan residues at 10 uM measured after 1 hr by fluorescence spectrophotometric method.
Assay [2] has as its system T2, Heat shock protein 75 kDa, mitochondrial (Homo sapiens), Q12931 [E115K,R114E,E403K].
T2 sequence (whole entry): T1 sequence (whole entry) with R114E, E115K, E403K
The assay is described as follows: Stimulation of recombinant […] human TRAP1 E115K/R114E/E403K mutant ATPase activity expressed in Escherichia coli BL21 (DE3) up to 20 uM preincubated for 0.5 hrs followed by ATP addition and measured after 3 hrs by PiColorLock Gold reagent based colorimetric assay.

Assay [3] addresses T1, Heat shock protein 75 kDa, mitochondrial (Homo sapiens). In words: Binding affinity to recombinant wild-type human TRAP1 ATP site expressed in Escherichia coli BL21 (DE3) assessed as induction of conformational change by measuring closed state population of TRAP1 at 10 uM measured after 30 mins in absence of ATP by TEM analysis (reference value: 52.1 +/- 0.6 %).
For a further assay, the system named is HeLa. In words: Cytotoxicity against human HeLa cells assessed as reduction in cell viability up to 3 uM measured after 24 hrs by MTT assay. The class given is functional, cell-based. (In general: Formazan colour is commonly taken as a measure of viable cells.)
The target of assay [4] is T1, Heat shock protein 75 kDa, mitochondrial (Homo sapiens). In words: Allosteric modulation of recombinant wild-type human TRAP1 ATPase activity expressed in Escherichia coli BL21 (DE3) assessed as increase in substrate Km at 5 uM preincubated for 0.5 hrs followed by varying levels of ATP addition and measured after 3 hrs using PiColorLock Gold reagent by colorimetric assay-based Lineweaver-Burk plot analysis relative to control.

The subject of assay [5] is T3, Heat shock protein 75 kDa, mitochondrial (Homo sapiens), Q12931 [E115Q].
T3 sequence (whole entry): T1 sequence (whole entry) with E115Q
In words: Inhibition of recombinant […] human TRAP1 E115Q mutant ATPase activity expressed in Escherichia coli BL21 (DE3) up to 20 uM preincubated for 0.5 hrs followed by ATP addition and measured after 3 hrs by PiColorLock Gold reagent based colorimetric assay.

With `Nc1ncnc2c1nc(Sc1cc3c(cc1I)OCO3)n2CCCCCCCCCC[P+](c1ccccc1)(c1ccccc1)c1ccccc1`, the inhibition entry (in assay [1]; in the assay listed under Homo sapiens; in assay [5]) was “Active” throughout. The result in assay [2] was inactive. Moreover, the Activity in assay [3] worked out at 72.5%. In addition, the result in the assay on HeLa was Active. Moreover, the fold change (FC) in assay [4] came out at 3.
